Assay results: patent US8129355B2, “Ketone ligands for modulating the expression of exogenous genes via an ecdysone receptor complex” (priority 2002, dated 2012)
“And” between values parts separate entries of the source, which are not always exact repeats. Identical values can stand only once.

Assays:
[1] = biological target: T1, Bombyx mori EcR (VP16 fusion, switch construct CVBE) with 6XEcRE LacZ reporter (Bombyx mori, UniProt P49881); assay: Z3 assay: β-galactosidase (LacZ) reporter gene fold induction in stably transformed human 293 kidney cells (clone Z3); type: cell-based; details: for CC50: average, dose response, three-parameter logistic model, read-out: Z3 LC50; for Z3 Rel Max FI: maximum fold induction at any concentration relative to that of GS-E ligand
T1 construct: expressed in transfected cells; host or cells: Human 293 kidney (HEK-293) cells, retrovirally infected, clone Z3
T1 sequence (P49881 86-606 limits assumed): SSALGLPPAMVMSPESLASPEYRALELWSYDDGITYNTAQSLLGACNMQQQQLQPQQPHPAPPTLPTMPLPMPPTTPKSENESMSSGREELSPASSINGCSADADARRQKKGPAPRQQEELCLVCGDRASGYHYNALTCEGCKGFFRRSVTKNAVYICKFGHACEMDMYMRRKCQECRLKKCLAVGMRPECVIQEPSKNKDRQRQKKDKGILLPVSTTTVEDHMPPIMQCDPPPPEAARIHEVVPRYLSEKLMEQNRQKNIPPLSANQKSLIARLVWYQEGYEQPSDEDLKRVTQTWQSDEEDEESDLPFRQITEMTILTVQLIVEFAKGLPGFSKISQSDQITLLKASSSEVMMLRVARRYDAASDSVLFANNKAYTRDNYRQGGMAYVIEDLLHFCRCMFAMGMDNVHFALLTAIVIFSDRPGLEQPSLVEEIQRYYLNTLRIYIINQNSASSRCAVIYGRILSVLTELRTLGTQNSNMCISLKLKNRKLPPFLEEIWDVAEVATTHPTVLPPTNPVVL
T1 sequence (P19793 1-462 partner): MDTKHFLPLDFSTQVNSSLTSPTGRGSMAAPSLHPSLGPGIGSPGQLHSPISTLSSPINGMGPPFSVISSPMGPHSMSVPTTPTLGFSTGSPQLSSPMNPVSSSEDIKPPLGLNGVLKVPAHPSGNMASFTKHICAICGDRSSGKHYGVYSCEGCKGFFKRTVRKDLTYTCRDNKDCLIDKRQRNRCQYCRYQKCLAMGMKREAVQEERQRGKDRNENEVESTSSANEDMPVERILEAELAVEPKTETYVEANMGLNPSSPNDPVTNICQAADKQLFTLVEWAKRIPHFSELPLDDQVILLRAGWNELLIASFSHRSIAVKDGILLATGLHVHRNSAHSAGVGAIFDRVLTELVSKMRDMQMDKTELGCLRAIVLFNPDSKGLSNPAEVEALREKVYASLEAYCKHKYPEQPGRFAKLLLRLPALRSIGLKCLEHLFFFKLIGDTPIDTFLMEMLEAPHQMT
Text: Dr. F. Gage provided a population of stably transformed cells containing CVBE and 6XEcRE as described in Suhr, S. T., Gil, E. B., Senut M. C., Gage, F. H. (1998) Proc. Natl. Acad. Sci. USA 95, 7999-804. Human 293 kidney cells, also referred to as HEK-293 cells, were sequentially infected with retroviral vectors encoding first the switch construct CVBE, and subsequently the reporter construct 6XEcRE Lac Z. The switch construct contained the coding sequence for amino acids 26-546 from Bombyx mori EcR (BE) (Iatrou) inserted in frame and downstream of the VP16 transactivation domain (VBE). A synthetic ATG start codon was placed under the control of cytomegalovirus (CVBE) immediate early promoter and flanked by long terminal repeats (LTR). The reporter construct contained six copies of the ecdysone response element (EcRE) binding site placed upstream of LacZ and flanked on both sides with LTR sequences (6XEcRE).
Dilution cloning was used to isolate individual clones. Clones were selected using 450 ug/mL G418 and 100 ng/mL puromycin. Individual clones were evaluated based on their response in the presence and absence of test ligands. Clone Z3 was selected for screening and SAR purposes.
Human 293 kidney cells stably transformed with CVBE and 6XEcRE lack were maintained in Minimum Essential Medium (Mediates, 10-010-CV) containing 10% FBS (Life Technologies, 26140-087), […] G418 (Mediates, 30-234-CR), and […] (Sigma, P-7255), at 37° C. in an atmosphere containing 5% CO2 and were subculture when they reached 75% confluence.
Z3 cells were seeded into 96-well tissue culture plates at a concentration of 2.5×10^3 cells per well and incubated at 37° C. in 5% CO2 for twenty-four hours. Stock solutions of ligands were prepared in DMSO. Ligand stock solutions were diluted 100 fold in media and 50 μL of this diluted ligand solution (33 μM) was added to cells. The final concentration of DMSO was maintained at […] in both controls and treatments.
Reporter gene expression was evaluated 48 hours after treatment of cells, β-galactosidase activity was measured using Gal Screen™ bioluminescent reporter gene assay system from Tropix (GSY1000).
Flanking both constructs are long terminal repeats, G418 and puromycin are selectable markers, CMV is the cytomegalovirus promoter, VBE is coding sequence for amino acids 26-546 from Bombyx mori EcR inserted downstream of the VP16 transactivation domain, 6×EcRE is six copies of the ecdysone response element, lacZ encodes for the reporter enzyme β-galactosidase. Suhr, S. T., Gil, E. B., Senut M. C., Gage, F. H. (1998) Proc. Natl. Acad. Sci. USA 95, 7999-804. Swevers, L., Drevet, J. R., Lunke, M. D., Iatrou, K. (1995) Insect Biochem. Mol. Biol. 25, 857-866.

[2] = biological target: T2, GAL4 DBD (1-147)-CfEcR(DEF)/VP16AD-βRXREF-LmUSPEF (Choristoneura fumiferana, UniProt O77240); assay: 27-63 assay: luciferase reporter gene expression in stable CHO cell clone 27-63; details: for Fold Induction Average, 27-63 Assay (33 μM): single dose 33 μM, RLU ligand treated / RLU DMSO treated cells; for CC50: read-out: 27-63 LC50, average, dose response; for CC50 / EC50: three-parameter logistic model; for EC50: 27-63 EC50 (μM), CHO clone 27-63, luciferase reporter 48 h after treatment, dose response 8 concentrations 33 μM to 0.01 μM
T2 sequence (O77240 191-513): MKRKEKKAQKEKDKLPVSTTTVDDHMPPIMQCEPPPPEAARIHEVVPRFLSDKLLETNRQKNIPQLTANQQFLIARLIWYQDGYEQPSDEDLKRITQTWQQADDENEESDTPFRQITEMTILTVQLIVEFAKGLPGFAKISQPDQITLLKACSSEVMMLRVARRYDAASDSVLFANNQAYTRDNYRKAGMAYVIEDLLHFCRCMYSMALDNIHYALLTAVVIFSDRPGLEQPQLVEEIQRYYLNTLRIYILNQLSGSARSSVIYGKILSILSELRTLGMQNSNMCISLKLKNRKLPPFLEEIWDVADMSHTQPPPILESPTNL
T2 sequence (P28702 296-455 partner limits assumed): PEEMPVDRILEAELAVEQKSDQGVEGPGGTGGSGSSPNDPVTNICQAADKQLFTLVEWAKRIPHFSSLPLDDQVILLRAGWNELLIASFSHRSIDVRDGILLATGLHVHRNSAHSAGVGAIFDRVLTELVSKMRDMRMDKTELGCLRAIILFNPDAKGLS
Text: GAL4 DBD (1-147)-CfEcR(DEF)/VP16AD-βRXREF-LmUSPEF: The wild-type D, E, and F domains from spruce budworm Choristoneura fumiferana EcR (“CfEcR-DEF”; SEQ ID NO: 1) were fused to a GAL4 DNA binding domain (“Gal4 DBD1-147”; nucleotides 31 to 471 of SEQ ID NO: 2) and placed under the control of a phosphoglycerate kinase promoter (“PGK”; SEQ ID NO: 3). Helices 1 through 8 of the EF domains from Homo sapiens RXRβ and helices 9 through 12 of the EF domains of Locusta migratoria Ultraspiracle Protein (“HsRXRβ-EF-LmUSP-EF”; SEQ ID NO: 4) were fused to the transactivation domain from VP16 (“VP16AD”; SEQ ID NO: 5) and placed under the control of an elongation factor-1α promoter (“EF-1α”; SEQ ID NO: 6). Five consensus GAL4 response element binding sites (“5XGAL4RE”; comprising 5 copies of a GAL4RE comprising SEQ ID NO: 7) were fused to a synthetic TATA minimal promoter (SEQ ID NO: 8) and placed upstream of the luciferase reporter gene (SEQ ID NO: 9).
CHO cells were transiently transfected with transcription cassettes for GAL4 DBD (1-147) CfEcR(DEF) and for VP16AD βRXREF-LmUSPEF controlled by ubiquitously active cellular promoters (PGK and EF-1α, respectively) on a single plasmid. Stably transfected cells were selected by Zeocin resistance. Individually isolated CHO cell clones were transiently transfected with a GAL4 RE-luciferase reporter (pFR Luc). 27-63 clone was selected using Hygromycin.
(§1) Cells were trypsinized and diluted to a concentration of 2.5×10^4 cells mL. 100 μL of cell suspension was placed in each well of a 96 well plate and incubated at 37° C. under 5% CO2 for 24 h. Ligand stock solutions were prepared in DMSO and diluted 300 fold for all treatments. Dose response testing consisted of 8 concentrations ranging from 33 μM to 0.01 μM.
(§2) Luciferase reporter gene expression was measured 48 h after cell treatment using Bright-Glo™ Luciferase Assay System from Promega (E2650). Luminescence was detected at room temperature using a Dynex MLX microtiter plate luminometer.
(§3) Fold inductions were calculated from single dose testing by dividing relative light units (RLU) in ligand treated cells by RLU in DMSO treated cells. BC50s were calculated from dose response data using a three-parameter logistic model.

[3] = biological target: T3, GAL4 DBD-CfEcR(DEF)/VP16AD-MmRXRE (Choristoneura fumiferana, UniProt O77240); assay: cell-based
T3 sequence (O77240 1-513): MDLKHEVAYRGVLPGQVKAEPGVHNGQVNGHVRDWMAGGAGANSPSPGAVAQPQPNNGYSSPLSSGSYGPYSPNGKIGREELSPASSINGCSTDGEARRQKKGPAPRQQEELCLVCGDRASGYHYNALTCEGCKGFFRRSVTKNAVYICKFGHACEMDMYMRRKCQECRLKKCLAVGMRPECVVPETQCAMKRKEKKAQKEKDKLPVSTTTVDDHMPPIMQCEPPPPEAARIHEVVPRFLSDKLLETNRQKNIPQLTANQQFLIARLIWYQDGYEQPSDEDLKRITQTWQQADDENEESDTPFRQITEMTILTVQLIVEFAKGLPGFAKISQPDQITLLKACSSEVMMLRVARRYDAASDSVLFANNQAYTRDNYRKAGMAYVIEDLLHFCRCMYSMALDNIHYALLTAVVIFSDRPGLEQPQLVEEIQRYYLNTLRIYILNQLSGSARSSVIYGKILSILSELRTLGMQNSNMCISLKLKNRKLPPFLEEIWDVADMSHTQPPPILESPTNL
Text: GAL4 DBD-CfEcR(DEF)/VP16AD-MmRXRE: The wild-type D, E, and F domains from spruce budworm Choristoneura fumiferana EcR (“CfEcR-DEF”; SEQ ID NO: 1) were fused to a GAL4 DNA binding domain (“Gal4 DBD1-147”; nucleotides 31 to 471 of SEQ ID NO: 2) and placed under the control of the SV40e promoter of pM vector (PT3119-5, Clontech, Palo Alto, Calif.). The D and E domains from Mus Musculus RXR (“MmRXR-DE”; SEQ ID NO: 10) were fused to the transactivation domain from VP16 (“VP16AD”; SEQ ID NO: 5) and placed under the control of the SV40e promoter of the pVP16 vector (PT3127-5, Clontech, Palo Alto, Calif.).
CHO cells were transienty transfected with transcription cassettes for GAL4 DBD-CfEcR(DEF) and for VP16AD-MmRXRE controlled by SV40e promoters. Stably transfected cells were selected using Hygromycin. Individually isolated CHO cell clones were transiently transfected with a GAL4 RE-luciferase reporter (pMR-Luc, Stratagene, La Jolla, Calif.). The 13B3 clone was selected using Zeocin.
as §1, §2, §3

[4] = single dose 33 μM, ligand treated / DMSO treated cells
[5] = maximum fold induction at any concentration relative to that of GS-E ligand
[6] = maximum fold induction at any concentration relative to maximum fold induction of GS™-E ligand, CHO clone 27-63

COc1cccc(C(=O)NC2(C(=O)c3cc(C)cc(C)c3)CCN(S(C)(=O)=O)CC2)c1C [Example 151]
Fold Induction Average, Z3 Assay (33 μM) [1, 4]: 3 | Fold Induction Average, 27-63 Assay (33 μM) [2]: 1

COc1cccc(C(=O)NC2(C(=O)c3cc(C)cc(C)c3)CCNCC2)c1C [Example 147]
fold induction at 33 µM ([1]; single dose 33 μM, ligand treated / DMSO treated cells, read-out: Fold Induction Average, Z3 Assay (33 μM)): 1 | fold induction at 33 µM ([2]; CHO, read-out: Fold Induction Average, 27-63 Assay (33 μM)): 1

Cc1cc(C)cc(C(=O)C2(NC(=O)c3ccc4c(c3C)OCO4)CCCCC2)c1 [Example 81]
CC50 [1]: 3.68 µM | Z3 Rel Max FI [1]: 0.81 | 27-63 Rel Max FI [2, 5]: 0.91 | CC50 [2]: 3.22 µM

CCc1c(C(=O)NC2(C(=O)c3cc(C)cc(C)c3)CCCCC2)ccc2c1OCCO2 [Example 80]
CC50 [1]: 0.74 µM | Z3 Rel Max FI [1]: 0.89 | 27-63 Rel Max FI [2, 5]: 0.91 | CC50 [2]: 0.39 µM

COc1cccc(C(=O)NC2(C(=O)c3cc(C)cc(C)c3)CCCNC2)c1C (racemic) [Example 148]
Fold Induction Average, Z3 Assay (33 μM) [1, 4]: 7 | Fold Induction Average, 27-63 Assay (33 μM) [2]: 2

Cc1cc(C)cc(C(=O)C2(NC(=O)c3ccc4c(c3)OCCO4)CCCC2)c1 [Example 86]
CC50 [1]: 5.49 µM | Z3 Rel Max FI [1]: 0.61 | 27-63 Rel Max FI [2, 5]: 0.80 | CC50 [2]: 4.88 µM

Cc1ccc(S(=O)(=O)NC2(C(=O)c3cc(C)cc(C)c3)CCCC2)cc1 [Example 180]
EC50 [2]: 1.24 µM and 1.8 µM | 27-63 Rel Max FI [2, 6]: 0.86 and 1.00

Cc1c(C(=O)NC2(C(=O)c3ccccc3)CCCC2)oc2ccccc12 [Example 102]
Fold Induction Average, Z3 Assay (33 μM) [1, 4]: 1 | Fold Induction Average, 13B3 Assay (33 μM) [3]: 1

COc1cccc(C(=O)NC2(C(=O)c3cccc(C)c3)CC2)c1C [Example 9]
Fold Induction Average, Z3 Assay (33 μM) [1, 4]: 12 | Fold Induction Average, 13B3 Assay (33 μM) [3]: 0

Cc1cc(C)cc(C(=O)C2(NS(=O)(=O)c3ccc4c(c3)COCO4)CCCCC2)c1 [Example 179]
EC50 [2]: 6.53 µM | 27-63 Rel Max FI [2, 6]: 0.28

COc1cccc(C(=O)NC2(C(=O)c3cccc(C)c3)CCC3(CC2)OCCO3)c1C [Example 35]
Fold Induction Average, Z3 Assay (33 μM) [1, 4]: 9 | Fold Induction Average, 13B3 Assay (33 μM) [3]: 2
